Measurements taken from patent publication US11844793B2, “Liquid formulations of indacaterol” (AeroRx Therapeutics LLC, priority 2020, dated 2023).

Assays:
Format in all cases: physicochemical
[1] = Aqueous solubility of indacaterol with varying pH in citrate buffer; conditions: aqueous citrate buffer 5 mM
Method: Solubility studies of indacaterol in solutions of varying pH were performed using an orbital shaker method. Excess indacaterol was placed in a glass vial with an aqueous citrate buffer (5 mM; prepared from citric acid and NaOH). Samples were shaken for 12 to 24 hours to ensure equilibrium was reached before checking and adjusting the pH (using 1 M HCl and NaOH) and placing samples back into the orbital shaker for an additional 12 hours. This process was repeated up to two times or until the desired pH was obtained. After the desired pH was reached, the vial was removed from the shaker and allowed to settle for 30 minutes. Then, the sample was filtered using a 0.2 μM PVDF syringe filter; the initial 0.5 mL of filtrate was discarded. The pH was then measured and the concentration of the indacaterol was evaluated by UV-Vis.

[2] = Forced degradation study of indacaterol (RP-HPLC impurities); conditions: for Total Impurities (%): includes 2% process-related impurity
Method: A degraded sample panel was prepared to identify indacaterol degradation pathways and products. Stress conditions are outlined in Table 1.
One of 6N HCl, 6N NaOH, or 30% H2O2 (aqueous) were added to a suitable volume of 100 μg/mL indacaterol and diluted with water:methanol (50:50, v:v) to achieve a final indacaterol concentration of 10 μg/mL. Samples were stored at ambient temperature. At specified time points, acidic and basic hydrolysis (1 N HCl and 1 N NaOH, respectively) samples were neutralized (H2O2 samples were not quenched) and reversed-phase high performance liquid chromatography (RP-HPLC) was used to quantitate indacaterol impurities. All samples were diluted to 5 μg/mL prior to RP-HPLC analysis. Method parameters are outlined in Table 2.
Total impurities (process-related and product-related) of the indacaterol forced degradation study samples are presented in Table 3. Forced degradation impurity peaks were identified based on their retention time relative (RRT) to the indacaterol peak. Impurity peaks already present in the indacaterol (control group at T0; total peak area approximately 2%) were considered process-related, while additional peaks formed after the degradation were considered product-related.

[3] = Aqueous solubility of indacaterol and indacaterol maleate in water (orbital shaker, UV-Vis); conditions: water at pH 7.1
Method: Solubility studies of indacaterol and indacaterol maleate were performed using an orbital shaker method. Excess indacaterol was placed in a glass vial with water. The initial pH of the water was 7.1. Samples were shaken for 12 hours to ensure equilibrium was reached. After the 12 hour period, the vial was removed from the shaker and allowed to settle for 30 minutes. Then, the sample was filtered using a 0.2 μM polyvinylidene fluoride (PVDF) syringe filter; the initial 0.5 mL of filtrate was discarded. The pH was then measured and the concentration of the indacaterol was evaluated by UV-Vis.

SMILES: CCc1cc2c(cc1CC)CC(NC[C@H](O)c1ccc(O)c3[nH]c(=O)ccc13)C2 [Indacaterol, (R)-5-[2-(5,6-Diethylindan-2-ylamino)-1-hydroxyethyl]-8hydroxy-1H-quinolin-2-one]
- Solubility of indacaterol versus pH [1]: increase with decreasing pH
- Total Impurities (%) ([2]; Acidic Hydrolysis (1M HCl), 15 h, ambient temperature): 7.25%
- Total Impurities (%) ([2]; Acidic Hydrolysis (1M HCl), T0): 4.01%
- Total Impurities (%) ([2]; Basic Hydrolysis (1M NaOH), 15 h, ambient temperature): 7.69%
- Total Impurities (%) ([2]; Basic Hydrolysis (1M NaOH), T0): 3.99%
- Total Impurities (%) ([2]; Control, T0): 1.81%
- Total Impurities (%) ([2]; Control, T0, listed as indacaterol): approximately 2%
- degradation of indacaterol samples in aqueous solutions over time ([2]; FIG. 1, forced degradation experiment): minimal degradation
- Total Impurities (%) ([2]; Oxidation (1.2% H2O2), 7 h): 2.77%
- Total Impurities (%) ([2]; Oxidation (1.2% H2O2), 29 h): 8.83%
- Total Impurities (%) ([2]; Oxidation (1.2% H2O2), 29 h, listed as indacaterol): approximately 9%
- solubility in water [3]: insoluble
